# US5447919A, “Sulfated oligosaccharides” (Hoffmann-La Roche Inc., priority 1991, dated 1995)
# Key:
# [1] = test system: smooth muscle cells of rats; assay: Anti-proliferative activity in smooth muscle cell culture (% inhibition of growth after 7 days); type: cell-based, rat; conditions: for Anti-proliferative activity % inhibition: rat smooth muscle cells, 7 days, test substance 100 mg/ml as printed (100 μl/ml), vs non-inhibited growth
# Method: The anti-proliferative activity of the substances was determined in cell cultures as follows: smooth muscle cells of rats (cultivated in DMEM with 10% FCS at 37° C. and 5% CO2) were applied to cell culture plates with a density of 8×10^3 cells/well. After 4 hours, the number of adhered cells was determined and the substances to be tested ([…]) were added. Cells to which test substance was not added served as a comparison and heparin ([…]) served as a positive control. The cells were incubated for 7 days and then the cell number was determined. The antiproliferative activity of the individual substances was calculated as the % inhibition in comparison to non-inhibited growth: [formula] wherein cell number(d=0) =cell number after 4 h […]
# cell number(-) =cell number to which test substances was not added, after 7 days. cell number (inhib) =cell number with […] of the test substance
# Factor Xa = Factor Xa (Bos taurus, UniProt P00743); assay: anti-Xa Clotting Assay; type: biochemical; conditions: concentration which leads to a coagulation time double the control value; citrated plasma
# Sequence of Factor Xa (P00743 234-492 limits assumed): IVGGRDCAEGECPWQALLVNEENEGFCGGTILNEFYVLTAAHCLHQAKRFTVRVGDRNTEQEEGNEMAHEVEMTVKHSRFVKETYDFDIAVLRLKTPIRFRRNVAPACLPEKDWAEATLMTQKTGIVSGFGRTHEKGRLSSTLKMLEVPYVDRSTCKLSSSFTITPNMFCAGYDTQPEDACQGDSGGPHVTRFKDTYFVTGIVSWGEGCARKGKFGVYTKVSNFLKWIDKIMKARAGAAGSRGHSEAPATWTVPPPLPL
# Sequence of Factor Xa (P00743 41-180 partner limits assumed): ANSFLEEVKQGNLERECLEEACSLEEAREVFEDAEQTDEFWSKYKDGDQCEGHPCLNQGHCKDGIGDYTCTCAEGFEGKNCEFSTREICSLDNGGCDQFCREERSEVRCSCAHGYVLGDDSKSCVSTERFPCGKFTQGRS
# Method: (§1) The blood coagulation-ihibiting activity was determined as follows:
# anti-Xa Clotting Assay: 25 μl of citrated plasma having various concentrations of test compound are mixed with 75 μl of Factor Xa (Diagnostic Reagents, Thame, Oxon, Great Britain) diluted 1:100 in 0.63% citrate buffer (pH 7.3) which contains 41 mM imidazole, 82 mM NaCl and 0.1% albumin. After warming to 37° C. for 2 minutes, 200 μl of a 1:1 mixture of Factor X Deficient Plasma (Diagnostic Reagents) and Platelet Substitute (Diagnostic Reagents) are added and the mixture is incubated at 37° C. for 20 seconds. After the addition of 100 μl of pre-warmed 50 mM calcium chloride solution, the coagulation time is measured in a Fibrometer.
# (§2) The activity of the test compound is given as the IC50, which is that concentration [μg/ml] which leads to a coagulation time which is double the control value.
# citrated human plasma = assay: aPTT (activated partial thromboplastin time) Test; type: biochemical; conditions: concentration which leads to a coagulation time double the control value
# Method: as §1
# aPTT (activated partial thromboplastin time) Test (see Walenga et al., CRC Critical Reviews in Laboratory Sciences 22 (4) 361-389(1986)): 100 μl of citrated human plasma, which contains various concentrations of test compound, are incubated at 37° C. for 8 minutes with 100 μl of Activated Thrombofax (Ortho Diagnostics, Raritan, N.J., U.S.A.). 100 μl of prewarmed 25 mM calcium chloride solution are then added and the coagulation time is measured in a Fibrometer Coagulation Timer (Becton, Dickinson Basle).
# as §2
Substance,anti-proliferative activity (in words) ([1]; summary of test results of Table 1),"Anti-coagulation activity IC50, Coagulation inhibition Xa (Factor Xa) [µg/mL]",Anti-proliferative activity % inhibition [1] [%],"Anti-coagulation activity IC50, Coagulation inhibition aPTT (citrated human plasma) [µg/mL]"
Heparin [reference compound],anti-proliferatively active,,,
sulfated raffinose [Example 1],,> 1000,41,27
sulfated melezitese [Example 2],,250,25,150
